The term inhibition denotes the drop in the measured response relative to a control, in per cent. Read a low inhibition as a weak effect.

Molecules are shown by their SMILES. Where a name gives a salt, the structure may show the parent alone.

The source of these data is patent publication US5244908A, “Imidazopyridine derivatives and their pharmaceutical use” (Takeda Chemical Industries, Ltd., priority 1990, dated 1993).

The target of one test is calmodulin (Bos taurus, UniProt P62157). Briefly: Calmodulin inhibitory activity (calmodulin-activated cyclic nucleotide phosphodiesterase, [3H]cGMP). It is filed as biochemical. To be noted: 10^-5 M.
The subject of another test is rat heart. The experiment in a line: Effect on incidence of arrhythmia caused by ischemia and following reperfusion in rat heart. It counts as in vivo. The settings on record: 10 mg/kg oral, 1 hour before ligation; until 10 minutes after reperfusion. The protocol: Effect on incidence of arrhythmia caused by ischemia and following reperfusion in rat heart
Male Sprague Dawley rats (Japan Clea) of 9 to 10 weeks old were anesthetized with 50 mg/kg (i.p.) of sodium pentobarbital. The heart was exposed by a left thoractomy under artificial ventilation with room air and silk suture was placed under the main left coronary artery (LAD) to ligate for 5 minutes. Then, the ligature was released again for reperfusion. The incidence of ventricular tachycardia (VT), ventricular fibrillation (VF) and cardiac arrest (CA) caused until 10 minutes after reperfusion were noted. Medicines (compounds obtained in the above Examples) were orally administered (5 ml/kg) at 1 hour before tightening the ligature. The effect of medicines were estimated in comparison with the frequency of a group received a vehicle according to X^2 -test.

On calmodulin, `O=S(=O)(NCCSc1cccc2nccn12)c1ccc2ccccc2c1` [Compound 44, 5-[2-[(2-Naphthyl)sulfonylamino]ethylthio]imidazo[1,2-a]pyridine] showed an inhibition at 10 µM of 65%.

`CS(=O)(=O)NCCOc1cccc2nccn12` [Compound 62, 5-[2-(Methylsulfonylamino)ethyloxy]imidazo[1,2-a]pyridine]: the inhibition at 10 µM against calmodulin amounted to 79%.

Compound `CCCOC(=O)NCCSc1cccc2nccn12` [Compound 130, 5-[2-(Propyloxycarbonylamino)ethylthio]imidazo[1,2-a]pyridine] showed an inhibition at 10 µM against calmodulin of 50%.

`O=S(=O)(/C=C/c1ccccc1)N(CCSc1cccc2nccn12)S(=O)(=O)/C=C/c1ccccc1` [Compound 50, 5-[2-[N,N-di-(E)-Styrylsulfonylamino]ethylthio]imidazo[1,2-a]pyridine] had an inhibition at 10 µM on calmodulin of 65%.

With `O=C(NCCSc1cccc2nccn12)c1cccs1` [Compound 89, 5-[2-[(2-Thenoylamino)]ethylthio]imidazo[1,2-a]pyridine], on calmodulin, the inhibition at 10 µM worked out at 54%.

For `CC(C)NC(=O)NCCSc1cccc2nccn12` [Compound 103, 5-[2-(Isopropylcarbamoylamino)ethylthio]imidazo[1,2-a]pyridine], on calmodulin, 10 µM produced 52% inhibition.

With `O=C(NCCSc1cccc2nccn12)NC1CCCCC1` [Compound 105, 5-[2-(Cyclohexylcarbamoylamino)ethylthio]imidazo[1,2-a]pyridine], the inhibition at 10 µM against calmodulin came to 67%.

Compound `Cc1cn2c(SCCNS(=O)(=O)c3cccc4ccccc34)cccc2n1` [Compound 56, 2-Methyl-5-[2-(1-naphthylsulfonylamino)ethylthio]imidazo[1,2-a]pyridine] yielded an inhibition at 10 µM on calmodulin of 62%.

Turning to `O=S(=O)(NCCOc1cccc2nccn12)c1cccc2ccccc12` [Compound 78, 5-[2-(1-(Naphthyl)sulfonylamino)ethyloxy]imidazo[1,2-a]pyridine], on calmodulin, testing at 10 µM gave an inhibition of 56%.

As for `O=S(=O)(NCCSc1cccc2nccn12)C(F)(F)F` [Compound 26, 5-[2-(Trifluoromethylsulfonylamino)ethylthio]imidazo[1,2-a]pyridine], in the test on rat heart, the “CA (Frequency), cardiac arrest” value is recorded as 1/3; the “VF (Frequency), ventricular fibrillation” value is 1/3; the “VT (Frequency), ventricular tachycardia” value is given as 2/3. At calmodulin, this compound gave an inhibition at 10 µM of 100%.

In the case of `CC(C)OC(=O)NCCSc1cccc2ncc(CN3CCOCC3)n12` [Compound 144, 5-[2-(Isopropyloxycarbonylamino)ethylthio]-3-(morpholinomethyl)imidazo[1,2-a]pyridine], the inhibition at 10 µM at calmodulin stood at 60%.

For `CC(=O)NCCSc1cccc2nccn12` [Compound 83, 5-[2-(acetylamino)ethylthio]imidazo[1,2-a]pyridine], the inhibition at 10 µM on calmodulin was found to be 76%.

In turn, `O=S(=O)(NCCSc1cccc2nccn12)c1ccc(Cl)cc1` [Compound 34, 5-[2-[4-(Chloro)phenylsulfonylamino]ethylthio]imidazo[1,2-a]pyridine] displayed an inhibition at 10 µM against calmodulin of 53%.

On calmodulin, `O=S(=O)(N1CCC(Oc2cccc3nccn23)CC1)C(F)(F)F` [Compound 77, 5-[1-(Trifuloromethylsulfonyl)-4-piperidyloxy]imidazo[1,2-a]pyridine] showed an inhibition at 10 µM of 80%.

At calmodulin, `O=S(=O)(NCC(Oc1cccc2nccn12)c1ccccc1)C(F)(F)F` (stereo not drawn) [Compound 75, 5-[[1-(Phenyl)-2-(trifluoromethylsulfonylamino)]ethyloxy]imidazo[1,2-a]pyridine] gave an inhibition at 10 µM of 55%.

As to `CS(=O)(=O)NCCSc1cccc2ncc(CN3CCOCC3)n12` [Compound 14, 5-[2-(methylsulfonylamino)ethylthio]3-morpholinomethylimidazo[1,2-a]pyridine], in the test with rat heart, the “CA (Frequency), cardiac arrest” value is on record as 0/3; the “VF (Frequency), ventricular fibrillation” value is on record as 0/3; the “VT (Frequency), ventricular tachycardia” value is listed as 1/3. Also, at calmodulin, 10 µM produced 85% inhibition.

The compound `O=C(NCCSc1cccc2nccn12)C(F)(F)F` [Compound 84, 5-[2-(Trifluoroacetylamino)ethylthio]imidazo[1,2-a]pyridine] yielded an inhibition at 10 µM at calmodulin of 69%.

As for `CC(=O)Nc1nc(C)c(S(=O)(=O)NCCSc2cccc3nccn23)s1` [Compound 51, 5-[2-[2-(Acetylamino)-4-(methyl)-(5-thiazolyl)sulfonylamino]ethylthio]imidazo[1,2-a]pyridine], at calmodulin, the inhibition at 10 µM was 83%.

On calmodulin, `CC(=O)N(CCCSc1cccc2nccn12)CCNc1ccccc1` [Compound 158, 5-[3-[[2-(Anilino)ethyl]-N-(acetyl)amino]propylthio]imidazo[1,2-a]pyridine] came in with an inhibition at 10 µM of 81%.

With `O=S(=O)(NCCSc1cccc2nccn12)c1cccc2ccccc12` [Compound 42, 5-[2-[(1-Naphthyl)sulfonylamino]ethylthio]imidazo[1,2-a]pyridine], testing at 10 µM against calmodulin gave an inhibition of 100%.

Consider `CC(C)OC(=O)NCCCCSc1cccc2nccn12` [Compound 169, 5-[4-(isopropyloxycarbonylamino)butylthio]imidazo[1,2-a]pyridine], for which at 10 µM the inhibition on calmodulin was 58%.

Consider `CN(C)c1cccc2c(S(=O)(=O)NCCSc3cccc4nccn34)cccc12` [Compound 48, 5-[2-[5-(Dimethylamino)-(1-naphthylsulfonylamino)]ethylthio]imidazo[1,2-a]pyridine], for which, at calmodulin, the inhibition at 10 µM stood at 50%.

Consider `CCCCCCCCCCCCCCCCS(=O)(=O)NCCSc1cccc2nccn12` [Compound 9, 5-[2-(Hexadecylsulfonylamino)ethylthio]imidazo[1,2-a]pyridine], for which, at calmodulin, at 10 µM the inhibition was 100%.

At calmodulin, `COc1ccc(NC(=S)NCCSc2cccc3nccn23)cc1` [Compound 109, 5-[2-[4-(Methoxy)phenylthiocarbamoylamino]ethylthio]imidazo[1,2-a]pyridine] showed an inhibition at 10 µM of 50%.

`O=S(=O)(N1CCC(Sc2cccc3nccn23)CC1)C(F)(F)F` [Compound 165, 5-[1-(trifluoromethanesulfonyl)4-piperidylthio]imidazo[1,2-a]pyridine] registered an inhibition at 10 µM against calmodulin of 65%.

`CN(C)Cc1cnc2cccc(SCCNS(C)(=O)=O)n12` [Compound 16, 3-Dimethylaminomethyl-5-[2-(methylsulfonylamino)ethylthio]imidazo[1,2-a]pyridine.dihydrochloride] displayed an inhibition at 10 µM on calmodulin of 66%.

With `C=CCOC(=O)NCCSc1cccc2nccn12` [Compound 135, 5-[2-(Allyloxycarbonylamino)ethylthio]imidazo[1,2-a]pyridine], on calmodulin, the inhibition at 10 µM came to 60%.

For `COC(=O)NCCCSc1cccc2nccn12` [Compound 145, 5-[3-(Methoxycarbonylamino)propylthio]imidazo[1,2-a]pyridine], on calmodulin, 10 µM produced 63% inhibition.

Compound `Cc1cn2c(SCCNC(=S)Nc3ccccc3)cccc2n1` [Compound 115, 2-Methyl-5-[2-(phenylthiocarbamoylamino)ethylthio]imidazo[1,2-a]pyridine] displayed an inhibition at 10 µM against calmodulin of 53%.

For `O=S(=O)(NCCSc1cccc2nccn12)c1cc(Cl)c(Cl)cc1Cl` [Compound 37, 5-[2-[2,4,5-(Trichloro)phenylsulfonylamino]ethylthio]imidazo[1,2-a]pyridine], 10 µM produced 58% inhibition on calmodulin.

`O=S(=O)(NCCCCSc1cccc2nccn12)c1cccc2ccccc12` [Compound 168, 5-[4-(1-naphthalenesulfonylamino)butylthio]imidazo[1,2-a]pyridine]: on calmodulin, testing at 10 µM gave an inhibition of 56%.

At calmodulin, `O=C(NCCSc1cccc2nccn12)c1ccccc1` [Compound 87, 5-[2-(Benzoylamino)ethylthio]imidazo[1,2-a]pyridine] came in with an inhibition at 10 µM of 51%.

Regarding `COC(=O)NCCSc1cccc2nccn12` [Compound 128, 5-[2-(methoxycarbonylamino)ethylthio]imidazo[1,2-a]pyridine], the inhibition at 10 µM at calmodulin came to 50%.

On calmodulin, `O=C(NCCSc1cccc2nccn12)OCC(Cl)(Cl)Cl` [Compound 136, 5-[2-[2,2,2-(Trichloro)ethoxycarbonylamino]ethylthio]imidazo[1,2-a]pyridine] registered an inhibition at 10 µM of 52%.

Regarding `O=S(=O)(NCCSc1cccc2nccn12)c1ccccc1` [Compound 30, 5-[2-(Phenylsulfonylamino)ethylthio]imidazo[1,2-a]pyridine], the inhibition at 10 µM at calmodulin was 64%.

Take `CS(=O)(=O)NCC(Oc1cccc2nccn12)c1ccccc1` (stereo not drawn) [Compound 74, 5-[2-(Methylsulfonylamino)-1-(phenyl)ethyloxy]imidazo[1,2-a]pyridine]: the inhibition at 10 µM on calmodulin came out at 50%.

`CS(=O)(=O)NCCCSc1cccc2nccn12` [Compound 27, 5-[3-(Methylsulfonylamino)propylthio]imidazo[1,2-a]pyridine]: the inhibition at 10 µM against calmodulin was found to be 51%.

In turn, `CC(C)S(=O)(=O)NCCSc1cccc2nccn12` [Compound 5, 5-[2-(Isopropylsulfonylamino)ethylthio]imidazo[1,2-a]pyridine] returned an inhibition at 10 µM against calmodulin of 50%.

Turning to `CCNC(=O)NCCSc1cccc2nccn12` [Compound 101, 5-[2-(Ethylcarbamoylamino)ethylthio]imidazo[1,2-a]pyridine], at 10 µM the inhibition against calmodulin was 56%.

Turning to `CCCNC(=O)NCCSc1cccc2nccn12` [Compound 102, 5-[2-(Propylcarbamoylamino)ethylthio]imidazo[1,2-a]pyridine], the inhibition at 10 µM on calmodulin turned out to be 52%.

On calmodulin, `O=S(=O)(NCCCOc1cccc2nccn12)c1cccc2ccccc12` [Compound 79, 5-[3-(1-(Naphthyl)sulfonylamino)propyloxy]imidazo[1,2-a]pyridine] returned an inhibition at 10 µM of 50%.

At calmodulin, `CC(C)OC(=O)NCCSc1cccc2nccn12` [Compound 132, 5-[2-(Isopropyloxycarbonylamino)ethylthio]imidazo[1,2-a]pyridine] had an inhibition at 10 µM of 50%.
